Assay results: PMC9504208, “Comprehensive Study of Antiretroviral Drug Permeability at the Cervicovaginal Mucosa via an In Vitro Model” (Pharmaceutics, 2022)
Values belong to the compound of their own block, whether it stands above or below them.

Key:
[1] = tested on: drug transporter mRNA expression in VK2/E6E7 cells; test: Drug transporter mRNA expression (RT-qPCR) in stimulated VK2/E6E7 cells; type: cell-based, human
Method: (§1) Control was 0.1% DMSO with no drug. Cytokines were reconstituted in sterile and distilled water and added individually to cell cultures at the following concentrations: TNF-α (200 pg/mL), IL-1β (8 ng/mL), IL-6 (5 ng/mL) and IL-8 (100 ng/mL) were. […] Cells were stimulated for either drugs, cytokines or hormones for 72 h, before harvesting by centrifugation at 300× g for 10 min at 4 °C. For Lactobacillus crispatus a final MoI of 10 was used (10:1, bacterial cells:mammalian cell ratio) for co-culture in both HEC-1A and VK2/E6E7 cell lines. For Candida albicans, a final MoI of 1 for HEC-1A cells and 0.25 for VK2/E6E7 cells was used. Cells were incubated with fungal cells at 37 °C/5% CO2 for 24 h. All cell line stimulation experiments were conducted as a minimum of three biological repeats.
(§2) RNA extraction was performed using the RNeasy® Mini Kit (Qiagen, Manchester, UK). Cells were lysed by suspension in 600 μL of RLT Buffer with 1% β-mercaptoethanol (Sigma-Aldrich) and mechanical lysis into a QIAshredder (Qiagen). After the addition of 70% ethanol, the solution was loaded onto RNeasy columns for RNA purification as per the manufacturer’s instructions. DNase treatment was 15 min at room temperature. RNA was eluted from the columns with 30 μL of RNase-free ddH2O. Tapestation analysis was performed using an Agilent 2200 Tapestation system to determine the integrity of the RNA.
(§3) Synthesis of cDNA was performed using a Superscript® VILO™ kit (Life Technologies, Paisley, UK). Reverse transcription was performed at 25 °C for 10 min, 42 °C for 60 min and 85 °C for 5 min. The cDNA was then stored at −20 °C until RT-PCR assays.
(§4) SYBRgreen® PrecisionTM 2× qPCR Mastermix with ROX quencher (Primer Design, Southampton, UK) was used for all RT-qPCR assays. Individual primers were designed to target the HPRT1 and RPLP0 housekeeper genes (selected from an initial panel based on SD scores as a measure of the consistency of expression amongst all samples) in addition to seventeen ARV-associated drug transporters (9 ABC transporters and 8 SLC transporters) replicating the system contained in the TaqMan® 96-well Drug Transporter Array system (Life Technologies, Paisley, UK). Real-time quantitative PCR was performed using the 7900HT Fast Real-Time PCR system and data was analysed using the SDS 2.4 software (Applied Biosystems, Waltham, MA, USA). Cycling conditions were: 95 °C for 5 min, followed by 40 cycles of denaturation at 95 °C for 10 s, annealing at 60 °C for 10 s and extension at 72 °C for 10 s. Relative transcript levels in drug-stimulated cells were determined using the comparative Ct method (ΔΔCt method). Fold-change values of ±2–3 were considered minor, ±3–5 as moderate and >±5 as high.

[2] = tested on: drug transporter mRNA expression in HEC-1A cells; test: Drug transporter mRNA expression (RT-qPCR) in stimulated HEC-1A cells; type: cell-based, human; conditions: for Change in expression of drug transporters (panel of 17): 72 h stimulation
Method: as §1, §2, §3, §4

[3] = tested on: VK2/E6E7 cells; test: Intracellular accumulation of digoxin in cytokine-stimulated VK2/E6E7 cells; type: cell-based, human; conditions: 5 µM digoxin, 1 h; after cytokine stimulation
Method: A 500 μL sample from each well was stored and the remainder of the buffer was aspirated from the plates. The wells were then washed twice with ice-cold PBS to stop any further uptake of the drug. To each well, 500 μL of ddH2O was added and cells were removed using a cell scraper. The cell suspension was then transferred to individual tubes for mechanical cell lysis using a 21-gauge needle followed by a freeze-thaw cycle at -80 °C. Protein content for normalisation calculations was measured via a bicinchoninic acid assay. The solution was then centrifuged at 14,000× g for 15 min and the supernatants were stored at -80 °C until analysis by LC-MS/MS. Samples were centrifuged at 14,800 rpm for 5 min to remove cell debris. […] Analysis was performed on a Thermo Surveyor TSQ Quantum system using electrospray ionisation in positive ion mode. Samples (5 μL) were applied to a C18 column (Gemini 3μ, 150 × 3.0 mm, Phenomenex, Macclesfield, UK) maintained at 40 °C. […] The flow rate for both methods was 350 μL/min. […] Cytokines were reconstituted in sterile and distilled water and added individually to cell cultures at the following concentrations: TNF-α (200 pg/mL), IL-1β (8 ng/mL), IL-6 (5 ng/mL) and IL-8 (100 ng/mL) were. […] Cells were stimulated for either drugs, cytokines or hormones for 72 h, before harvesting by centrifugation at 300× g for 10 min at 4 °C. […] All cell line stimulation experiments were conducted as a minimum of three biological repeats.

[4] = Bi-directional permeability (Papp) across HEC-1A dual chamber (Transwell) barrier model; type: in vitro ADME; conditions: human; for Papp A→B at 2 h: pH 7.4, Absorptive Papp of mannitol; for Papp B→A at 2 h: pH 7.4, Secretory Papp of mannitol
Method: The apical chambers of 12-well polycarbonate and polyester systems (Corning Costar Corp, Cambridge, UK) were seeded with different densities of HEC-1A cells in 500 µL of the medium while 1500 µL culture medium was added to the basolateral chamber. -Medium in both chambers was changed every 48–72 h.

[5] = in vitro; conditions: human, pH 7.4
Method: (§5) All transport experiments were undertaken over a 2-h period (unless stated) at 37 °C in HBSS supplemented with 1% HEPES buffer (Sigma-Aldrich) at pH 7.4 as reported [22]. HBSS was used to prevent the drug from binding to albumin present in cell culture media. All solutions were warmed to 37 °C and experiments were performed on a heated orbital shaker set at 50 RPM. […] Prior to the initiation of the drug transport experiments, TEER was measured. Cell layers were then washed twice with pre-warmed HBSS+1%HEPES transport buffer and equilibrated in the same solution for 30 min at 37 °C. […] The experiment was initiated when either the donor or receiver solutions were added to the respective compartments. Following the addition of donor solution, 20 µL samples were taken immediately from donor and receiver compartments, T = 0 (for assessment of initial concentration and background radioactivity, respectively). Transwells® were then placed on an orbital shaker set at 50 RPM. […] After final sampling, TEER was measured to confirm that there was no disruption to the epithelial barrier during the experimental procedure. Radioactive samples were mixed with 4 mL of scintillation fluid (Fisher Scientific, Waltham, MA, USA) and analysed using a liquid scintillation counter (Beckman Coulter, Brea, CA, USA). […]

[6] = tested on: HEC-1A cell layers
Method: as §5

[7] = tested on: HEC-1A cells; test: Cytokine production of HEC-1A cells stimulated with PAMPs (Luminex); type: cell-based, human
Method: HEC-1A cells were stimulated with different PAMPs (pam 3CSK4, lipoteichoic acid, poly(I:C), Escherichia coli lipopolysaccharide, FSL-1, flagellin, imiquimod, zymosan) (InvivoGen, San Diego, CA, USA) diluted in cell culture media with incubation at 37 °C in 5% CO2 for 24 h. PAMPs were titrated to determine the optimal concentration for cytokine stimulation. Blank samples contained media only. After 24 h, the supernatant was collected for cytokine detection. Cytokine levels were determined using a Magnetic Luminex® Performance Assay kit (R&D Systems, Minneapolis, MN, USA) following the manufacturer’s instructions. Analyte-specific antibodies were pre-coated onto colour-coded microparticles and detection was carried out with a biotinylated antibody cocktail specific to the target cytokines and a streptavidin-phycoerythrin conjugate. Samples were resuspended in 100 µL of Washing Buffer and measured for a phycoerythrin-derived signal using a Luminex® 100 instrument.

[8] = 72 h hormone stimulation, vs ethanol control, increased
[9] = 1% DMSO in donor compartment (initial dapivirine assay)
[10] = paracellular marker in the tenofovir permeability assay

Compound: C[C@]12CC[C@@H]3c4ccc(O)cc4CC[C@H]3[C@@H]1CC[C@@H]2O [β-estradiol]
CNT3 mRNA expression, fold-change [1, 8]: 3.70 ± 1.43 fold
MRP3 mRNA expression, fold-change [1, 8]: 2.14 ± 0.30 fold
BCRP mRNA expression, fold-change [2, 8]: 2.64 ± 0.44 fold

Compound: IL-1β: pro-inflammatory cytokine
Effect on intracellular uptake of digoxin [3]: significantly reduced
Expression of uptake transporters OATP8 and CNT3 ([1]; 72 h cytokine stimulation): induce the expression
P-gp mRNA level ([1]; 72 h cytokine stimulation): increased
Change in expression of drug transporters (panel of 17) [2]: No changes

Papp A→B at 2 h [4, 9]: 2.5 to 2.61 ×10⁻⁶ cm/s
Papp A→B at 2 h [4, 10]: 2.09 to 3.1 ×10⁻⁶ cm/s
Papp B→A at 2 h [4, 9]: 5.1 to 6.81 ×10⁻⁶ cm/s
Papp B→A at 2 h [4, 10]: 2.7 to 2.85 ×10⁻⁶ cm/s
Papp at 2 h ([4]; pH 7.4, mannitol measured simultaneously in drug permeability assays, read-out: Papp (barrier integrity control)): < 4 ×10⁻⁶ cm/s
Papp at 2 h, 10 µM [5]: 1.43 to 2.17 ×10⁻⁶ cm/s
Papp [6]: 2.23 to 2.47 ×10⁻⁶ cm/s
Compound: OC[C@@H](O)[C@@H](O)[C@H](O)[C@H](O)CO [mannitol]

Compound: IL-8: pro-inflammatory cytokine
Change in expression of drug transporters (panel of 17) [2]: No changes

Compound: poly(I:C)
Pro-inflammatory cytokine production ([7]; 24 h stimulation): induced production of IL-6, IL-8, IL-1α, GM-CSF and TNF-α
Optimum concentration for cytokine stimulation ([7]; titration 1–50 µg/ml): 25 µg/mL
